Measured values as given in ChEMBL document CHEMBL5113401, “Novel 1,3,4-oxadiazole chalcogen analogues: Synthesis and cytotoxic activity” (Eur J Med Chem, 2022).
Activity calls are given as the source filed them. The rule behind the calls is not given here.

System: MCF7
Test: Antiproliferative activity against human MCF7 cells assessed as inhibition of cell growth incubated for 48 hrs by XTT assay
Format: functional, cell-based
Settings: MCF7, 48 h

| SMILES | IC50 [nM] |
| --- | --- |
| Cc1[nH]c2c(c1-c1nnc(-c3ccccc3)[se]1)Cc1ccccc1-2 | 176 |
| Cc1[nH]c2c(c1-c1nnc(-c3ccc(C(C)(C)C)cc3)s1)Cc1ccccc1-2 | > 10000 |
| Cc1[nH]c2c(c1-c1nnc(-c3cccc(Cl)c3)[se]1)Cc1ccccc1-2 | 216 |
| Cc1[nH]c2c(c1-c1nnc(-c3ccc(Cl)c(Cl)c3)[se]1)Cc1ccccc1-2 | > 10000 |

System: HeLa
Test: Antiproliferative activity against human HeLa cells assessed as inhibition of cell growth incubated for 48 hrs by XTT assay
Format: functional, cell-based
Settings: not given

| SMILES | IC50 [nM] |
| --- | --- |
| Cc1[nH]c2c(c1-c1nnc(-c3ccccc3)[se]1)Cc1ccccc1-2 | 9 |
| Cc1[nH]c2c(c1-c1nnc(-c3ccc(C(C)(C)C)cc3)s1)Cc1ccccc1-2 | > 10000 |
| Cc1[nH]c2c(c1-c1nnc(-c3cccc(Cl)c3)[se]1)Cc1ccccc1-2 | 83 |
| Cc1[nH]c2c(c1-c1nnc(-c3ccc(Cl)c(Cl)c3)[se]1)Cc1ccccc1-2 | > 10000 |

System: PC-3
Test: Antiproliferative activity against human PC-3 cells assessed as inhibition of cell growth incubated for 48 hrs by XTT assay
Format: functional, cell-based
Settings: PC-3, 48 h

| SMILES | IC50 [nM] |
| --- | --- |
| Cc1[nH]c2c(c1-c1nnc(-c3ccccc3)[se]1)Cc1ccccc1-2 | 72 |
| Cc1[nH]c2c(c1-c1nnc(-c3ccc(C(C)(C)C)cc3)s1)Cc1ccccc1-2 | > 10000 |
| Cc1[nH]c2c(c1-c1nnc(-c3cccc(Cl)c3)[se]1)Cc1ccccc1-2 | 548 |
| Cc1[nH]c2c(c1-c1nnc(-c3ccc(Cl)c(Cl)c3)[se]1)Cc1ccccc1-2 | > 10000 |

System: HFF-1
Test: Cytotoxicity against HFF-1 cells assessed as reduction in cell viability at 1 to 2 uM incubated for 48 hrs by XTT assay
Format: toxicity, cell-based
Settings: human, hff-1, 48 h, dose 1-2 µM

| SMILES | Activity |
| --- | --- |
| Cc1[nH]c2c(c1-c1nnc(-c3ccccc3)[se]1)Cc1ccccc1-2 | Non-Toxic |
| Cc1[nH]c2c(c1-c1nnc(-c3cccc(Cl)c3)[se]1)Cc1ccccc1-2 | Non-Toxic |

System: NB1
Test: Cytotoxicity against human NB1 cells immortalized with hTERT plasmid assessed as reduction in cell viability at 1 to 2 uM incubated for 48 hrs by XTT assay
Format: toxicity, cell-based
Settings: nb1, 48 h, dose 1-2 µM

| SMILES | Activity |
| --- | --- |
| Cc1[nH]c2c(c1-c1nnc(-c3ccccc3)[se]1)Cc1ccccc1-2 | Non-Toxic |
| Cc1[nH]c2c(c1-c1nnc(-c3cccc(Cl)c3)[se]1)Cc1ccccc1-2 | Non-Toxic |

System: HeLa
Test: Inhibition of colony formation in human HeLa cells at IC50 incubated for 2 weeks with culture medium replacement for every 3 days by crystal violet staining based analysis
Format: functional, cell-based
Settings: not given

| SMILES | inhibition |
| --- | --- |
| Cc1[nH]c2c(c1-c1nnc(-c3ccccc3)[se]1)Cc1ccccc1-2 | Active |
| Cc1[nH]c2c(c1-c1nnc(-c3cccc(Cl)c3)[se]1)Cc1ccccc1-2 | Active |

System: PC-3
Test: Inhibition of colony formation in human PC-3 cells at IC50 incubated for 2 weeks with culture medium replacement for every 3 days by crystal violet staining based analysis
Format: functional, cell-based
Settings: not given

| SMILES | inhibition |
| --- | --- |
| Cc1[nH]c2c(c1-c1nnc(-c3ccccc3)[se]1)Cc1ccccc1-2 | Active |
| Cc1[nH]c2c(c1-c1nnc(-c3cccc(Cl)c3)[se]1)Cc1ccccc1-2 | Active |

System: HeLa
Test: Induction of cell cycle arrest in human HeLa cells assessed as accumulation of cells at G1 phase at 1 uM incubated for 6 hrs by FACS flow cytometry analysis (reference value: 69.94 +/- 1.71 %)
Format: functional
Settings: not given

| SMILES | Activity [%] |
| --- | --- |
| Cc1[nH]c2c(c1-c1nnc(-c3ccccc3)[se]1)Cc1ccccc1-2 | 24.24 |
| Cc1[nH]c2c(c1-c1nnc(-c3cccc(Cl)c3)[se]1)Cc1ccccc1-2 | 27.87 |

System: HeLa
Test: Induction of cell cycle arrest in human HeLa cells assessed as accumulation of cells at S phase at 1 uM incubated for 6 hrs by FACS flow cytometry analysis (reference value: 17.41 +/- 0.96 %)
Format: functional
Settings: not given

| SMILES | Activity [%] |
| --- | --- |
| Cc1[nH]c2c(c1-c1nnc(-c3ccccc3)[se]1)Cc1ccccc1-2 | 70.25 |
| Cc1[nH]c2c(c1-c1nnc(-c3cccc(Cl)c3)[se]1)Cc1ccccc1-2 | 48.5 |

System: HeLa
Test: Induction of cell cycle arrest in human HeLa cells assessed as accumulation of cells at G2/M phase at 1 uM incubated for 6 hrs by FACS flow cytometry analysis (reference value: 12.66 +/- 0.88 %)
Format: functional
Settings: not given

| SMILES | Activity [%] |
| --- | --- |
| Cc1[nH]c2c(c1-c1nnc(-c3ccccc3)[se]1)Cc1ccccc1-2 | 5.51 |
| Cc1[nH]c2c(c1-c1nnc(-c3cccc(Cl)c3)[se]1)Cc1ccccc1-2 | 23.63 |

System: HeLa
Test: Induction of cell cycle arrest in human HeLa cells assessed as accumulation of cells at G1 phase at 1 uM incubated for 18 hrs by FACS flow cytometry analysis (reference value: 69.94 +/- 1.25 %)
Format: functional
Settings: not given

| SMILES | Activity [%] |
| --- | --- |
| Cc1[nH]c2c(c1-c1nnc(-c3ccccc3)[se]1)Cc1ccccc1-2 | 1.06 |
| Cc1[nH]c2c(c1-c1nnc(-c3cccc(Cl)c3)[se]1)Cc1ccccc1-2 | 1.15 |

System: HeLa
Test: Induction of cell cycle arrest in human HeLa cells assessed as accumulation of cells at S phase at 1 uM incubated for 18 hrs by FACS flow cytometry analysis (reference value: 17.41 +/- 1.16 %)
Format: functional
Settings: not given

| SMILES | Activity [%] |
| --- | --- |
| Cc1[nH]c2c(c1-c1nnc(-c3ccccc3)[se]1)Cc1ccccc1-2 | 10.36 |
| Cc1[nH]c2c(c1-c1nnc(-c3cccc(Cl)c3)[se]1)Cc1ccccc1-2 | 9.44 |

System: HeLa
Test: Induction of cell cycle arrest in human HeLa cells assessed as accumulation of cells at G2/M phase at 1 uM incubated for 18 hrs by FACS flow cytometry analysis (reference value: 12.66 +/- 0.92 %)
Format: functional
Settings: not given

| SMILES | Activity [%] |
| --- | --- |
| Cc1[nH]c2c(c1-c1nnc(-c3ccccc3)[se]1)Cc1ccccc1-2 | 88.58 |
| Cc1[nH]c2c(c1-c1nnc(-c3cccc(Cl)c3)[se]1)Cc1ccccc1-2 | 89.4 |

System: PC-3
Test: Induction of cell cycle arrest in human PC-3 cells assessed as accumulation of cells at G1 phase at 1 uM incubated for 6 hrs by FACS flow cytometry analysis (reference value: 44.2 +/- 2.21 %)
Format: functional
Settings: not given

| SMILES | Activity [%] |
| --- | --- |
| Cc1[nH]c2c(c1-c1nnc(-c3ccccc3)[se]1)Cc1ccccc1-2 | 8.76 |
| Cc1[nH]c2c(c1-c1nnc(-c3cccc(Cl)c3)[se]1)Cc1ccccc1-2 | 10.43 |

System: PC-3
Test: Induction of cell cycle arrest in human PC-3 cells assessed as accumulation of cells at S phase at 1 uM incubated for 6 hrs by FACS flow cytometry analysis (reference value: 35.06 +/- 1.85 %)
Format: functional
Settings: not given

| SMILES | Activity [%] |
| --- | --- |
| Cc1[nH]c2c(c1-c1nnc(-c3ccccc3)[se]1)Cc1ccccc1-2 | 56.26 |
| Cc1[nH]c2c(c1-c1nnc(-c3cccc(Cl)c3)[se]1)Cc1ccccc1-2 | 54.7 |

System: PC-3
Test: Induction of cell cycle arrest in human PC-3 cells assessed as accumulation of cells at G2/M phase at 1 uM incubated for 6 hrs by FACS flow cytometry analysis (reference value: 20.74 +/- 1.93 %)
Format: functional
Settings: not given

| SMILES | Activity [%] |
| --- | --- |
| Cc1[nH]c2c(c1-c1nnc(-c3ccccc3)[se]1)Cc1ccccc1-2 | 34.99 |
| Cc1[nH]c2c(c1-c1nnc(-c3cccc(Cl)c3)[se]1)Cc1ccccc1-2 | 34.87 |

System: PC-3
Test: Induction of cell cycle arrest in human PC-3 cells assessed as accumulation of cells at G1 phase at 1 uM incubated for 12 hrs by FACS flow cytometry analysis (reference value: 44.2 +/- 2.01 %)
Format: functional
Settings: not given

| SMILES | Activity [%] |
| --- | --- |
| Cc1[nH]c2c(c1-c1nnc(-c3ccccc3)[se]1)Cc1ccccc1-2 | 1.01 |
| Cc1[nH]c2c(c1-c1nnc(-c3cccc(Cl)c3)[se]1)Cc1ccccc1-2 | 1.87 |

System: PC-3
Test: Induction of cell cycle arrest in human PC-3 cells assessed as accumulation of cells at S phase at 1 uM incubated for 12 hrs by FACS flow cytometry analysis (reference value: 35.06 +/- 1.36 %)
Format: functional
Settings: not given

| SMILES | Activity [%] |
| --- | --- |
| Cc1[nH]c2c(c1-c1nnc(-c3ccccc3)[se]1)Cc1ccccc1-2 | 6.68 |
| Cc1[nH]c2c(c1-c1nnc(-c3cccc(Cl)c3)[se]1)Cc1ccccc1-2 | 8.65 |

System: PC-3
Test: Induction of cell cycle arrest in human PC-3 cells assessed as accumulation of cells at G2/M phase at 1 uM incubated for 12 hrs by FACS flow cytometry analysis (reference value: 20.74 +/- 1.95 %)
Format: functional
Settings: not given

| SMILES | Activity [%] |
| --- | --- |
| Cc1[nH]c2c(c1-c1nnc(-c3ccccc3)[se]1)Cc1ccccc1-2 | 92.31 |
| Cc1[nH]c2c(c1-c1nnc(-c3cccc(Cl)c3)[se]1)Cc1ccccc1-2 | 89.48 |

Target: T1, Tubulin (Homo sapiens) (UniProt P68371+Q9H4B7+P0DPH7+P68366+Q13509+Q71U36+P04350+Q3ZCM7+P07437+P68363+Q9BQE3+Q6PEY2+Q13885+Q9BVA1+Q9BUF5)
Test: Inhibition of tubulin polymerization in human HeLa cells assessed as irregular cell morphology at 0.5 uM incubated for 6 hrs by DAPI staining based fluorescence microscopic analysis
Settings: not given

| SMILES | inhibition |
| --- | --- |
| Cc1[nH]c2c(c1-c1nnc(-c3ccccc3)[se]1)Cc1ccccc1-2 | Active |
| Cc1[nH]c2c(c1-c1nnc(-c3cccc(Cl)c3)[se]1)Cc1ccccc1-2 | Active |

Target: T1, Tubulin (Homo sapiens)
Test: Inhibition of tubulin polymerization in human HeLa cells assessed as aberrations in mitotic spindle and nucleus at 0.5 uM incubated for 6 hrs by DAPI staining based fluorescence microscopic analysis
Format: cell-based
Settings: not given

| SMILES | inhibition |
| --- | --- |
| Cc1[nH]c2c(c1-c1nnc(-c3ccccc3)[se]1)Cc1ccccc1-2 | Active |
| Cc1[nH]c2c(c1-c1nnc(-c3cccc(Cl)c3)[se]1)Cc1ccccc1-2 | Active |

Target: T1, Tubulin (Homo sapiens)
Test: Inhibition of tubulin polymerization in human HeLa cells assessed as abnormal microtubule network at 0.5 uM incubated for 6 hrs by DAPI staining based fluorescence microscopic analysis
Format: cell-based
Settings: not given

| SMILES | inhibition |
| --- | --- |
| Cc1[nH]c2c(c1-c1nnc(-c3ccccc3)[se]1)Cc1ccccc1-2 | Active |
| Cc1[nH]c2c(c1-c1nnc(-c3cccc(Cl)c3)[se]1)Cc1ccccc1-2 | Active |

System: HeLa
Test: Induction of apoptosis in human HeLa cells assessed as viable cells at 1 uM incubated for 24 hrs by Annexin V-FITC/7-AAD staining based flow cytometric analysis (reference value: 85.6 +/- 1.061%)
Format: functional
Settings: read-out: Activity

| SMILES | viability at 1 µM [%] |
| --- | --- |
| Cc1[nH]c2c(c1-c1nnc(-c3ccccc3)[se]1)Cc1ccccc1-2 | 68 |
| Cc1[nH]c2c(c1-c1nnc(-c3cccc(Cl)c3)[se]1)Cc1ccccc1-2 | 80.1 |

System: HeLa
Test: Induction of apoptosis in human HeLa cells assessed as early apoptotic cells at 1 uM incubated for 24 hrs by Annexin V-FITC/7-AAD staining based flow cytometric analysis (reference value: 2.7 +/- 0.424 %)
Format: functional
Settings: not given

| SMILES | Activity [%] |
| --- | --- |
| Cc1[nH]c2c(c1-c1nnc(-c3ccccc3)[se]1)Cc1ccccc1-2 | 8.9 |
| Cc1[nH]c2c(c1-c1nnc(-c3cccc(Cl)c3)[se]1)Cc1ccccc1-2 | 2.7 |

System: HeLa
Test: Induction of apoptosis in human HeLa cells assessed as late apoptotic cells at 1 uM incubated for 24 hrs by Annexin V-FITC/7-AAD staining based flow cytometric analysis (reference value: 11.1 +/- 0.778 %)
Format: functional
Settings: not given

| SMILES | Activity [%] |
| --- | --- |
| Cc1[nH]c2c(c1-c1nnc(-c3ccccc3)[se]1)Cc1ccccc1-2 | 19.7 |
| Cc1[nH]c2c(c1-c1nnc(-c3cccc(Cl)c3)[se]1)Cc1ccccc1-2 | 15.4 |

System: HeLa
Test: Induction of apoptosis in human HeLa cells assessed as dead cells at 1 uM incubated for 24 hrs by Annexin V-FITC/7-AAD staining based flow cytometric analysis (reference value: 0.6 +/- 0.707 %)
Format: functional
Settings: not given

| SMILES | Activity [%] |
| --- | --- |
| Cc1[nH]c2c(c1-c1nnc(-c3ccccc3)[se]1)Cc1ccccc1-2 | 3.4 |
| Cc1[nH]c2c(c1-c1nnc(-c3cccc(Cl)c3)[se]1)Cc1ccccc1-2 | 1.8 |
